Test results from ChEMBL document CHEMBL5104091, “Pyridazine as a privileged structure: An updated review on anticancer activity of pyridazine containing bioactive molecules” (Eur J Med Chem, 2021).
Values after ≈ are worked out from the molar mass of the structure shown.

Columns and labels:
IMR-32 = experiment: Cytotoxicity against human IMR-32 cells assessed as cell growth inhibition; type: functional, cell-based
MDA-MB-436 = experiment: Antiproliferative activity against human MDA-MB-436 cells assessed as cell growth inhibition measured after 72 hrs by MTT assay; type: functional, cell-based; details: MDA-MB-436, 72 h
HCT-116 = experiment: Cytotoxicity against human HCT-116 cells assessed as cell growth inhibition; type: functional, cell-based
PC-3 [1] = experiment: Antiproliferative activity against human PC3 cells assessed as cell growth inhibition; type: functional
K562 = experiment: Antiproliferative activity against human K562 cells assessed as cell growth inhibition; type: functional
A-375 = experiment: Cytotoxicity against human A-375 cells assessed as cell growth inhibition; type: functional, cell-based
COLO 205 = experiment: Cytotoxicity against human COLO 205 cells assessed as cell growth inhibition; type: functional, cell-based
[2] = molecular target: T1, Hepatocyte growth factor receptor (Homo sapiens, UniProt P08581); experiment: Inhibition of c-Met (unknown origin) incubated for 20 to 30 mins in presence of [33P]-ATP by scintillation counter analysis
SR = experiment: Cytotoxicity against human SR cells assessed as cell growth inhibition measured after 48 hrs by SRB assay; type: functional
HCT-15 = experiment: Cytotoxicity against human HCT-15 cells assessed as cell growth inhibition measured after 48 hrs by SRB assay; type: functional
KM12 = experiment: Cytotoxicity against human KM12 cells assessed as cell growth inhibition measured after 48 hrs by SRB assay; type: functional
SW-620 = experiment: Cytotoxicity against human SW-620 cells assessed as cell growth inhibition measured after 48 hrs by SRB assay; type: functional
SF-295 = experiment: Cytotoxicity against human SF-295 cells assessed as cell growth inhibition measured after 48 hrs by SRB assay; type: functional
MDA-MB-435 = experiment: Cytotoxicity against human MDA-MB-435 cells assessed as cell growth inhibition measured after 48 hrs by SRB assay; type: functional
SK-MEL-5 = experiment: Cytotoxicity against human SK-MEL-5 cells assessed as cell growth inhibition measured after 48 hrs by SRB assay; type: functional
UACC-62 = experiment: Cytotoxicity against human UACC-62 cells assessed as cell growth inhibition measured after 48 hrs by SRB assay; type: functional
OVCAR-3 = experiment: Cytotoxicity against human OVCAR-3 cells assessed as cell growth inhibition measured after 48 hrs by SRB assay; type: functional
A498 = experiment: Cytotoxicity against human A498 cells assessed as cell growth inhibition measured after 48 hrs by SRB assay; type: functional
PC-3 [3] = experiment: Cytotoxicity against human PC-3 cells assessed as cell growth inhibition measured after 48 hrs by SRB assay; type: functional
MCF7 [4] = experiment: Cytotoxicity against human MCF7 cells assessed as cell growth inhibition measured after 48 hrs by SRB assay; type: functional
MDA-MB-468 = experiment: Cytotoxicity against human MDA-MB-468 cells assessed as cell growth inhibition measured after 48 hrs by SRB assay; type: functional
HepG2 [5] = experiment: Antiproliferative activity against human HepG2 cells assessed as inhibition of cell growth measured after 48 hrs by MTT assay; type: functional, cell-based; details: HepG2, 48 h
MCF7 [6] = experiment: Antiproliferative activity against human MCF7 cells assessed as cell growth inhibition measured after 48 hrs by MTT assay; type: functional, cell-based; details: MCF7, 48 h
MCF7 [7] = experiment: Cytotoxicity against human MCF7 cells assessed as cell growth inhibition measured after 48 hrs by MTT assay; type: functional, cell-based; details: MCF7, 48 h
CCRF-SB = experiment: Cytotoxicity against human CCRF-SB cells assessed as cell growth inhibition measured after 48 hrs by MTT assay; type: functional, cell-based
NALM-6 = experiment: Cytotoxicity against human NALM-6 cells assessed as cell growth inhibition measured after 48 hrs by MTT assay; type: functional, cell-based; details: NALM-6, 48 h
[8] = molecular target: Vascular endothelial growth factor receptor 2 (Homo sapiens, UniProt P35968); experiment: Inhibition of VEGFR2 (unknown origin) using ULight-4E-BP1 peptide as substrate incubated for 1 hr in presence of ATP by fluorescence based analysis
A549 [9] = experiment: Antiproliferative activity against human A549 cells assessed as cell growth inhibition measured after 48 hrs by MTT assay; type: functional, cell-based; details: A549, 48 h
A549 [10] = experiment: Potency index, ratio of Sorafenib IC50 to compound IC50 for antiproliferative activity against human A549 cells assessed as cell growth inhibition measured after 48 hrs by MTT assay; type: functional
MDA-MB-231 [11] = experiment: Antiproliferative activity against human MDA-MB-231 cells assessed as cell growth inhibition measured after 48 hrs by WST-1 assay; type: functional, cell-based; details: MDA-MB-231, 48 h
MDA-MB-231 [12] = experiment: Potency index, ratio of 5-Fu IC50 to compound IC50 for antiproliferative activity against human MDA-MB-231 cells assessed as cell growth inhibition measured after 48 hrs by WST-1 assay; type: functional
[13] = molecular target: T2, Poly [ADP-ribose] polymerase 1 (Homo sapiens, UniProt P09874); experiment: Inhibition of PARP1 (unknown origin) incubated for 30 mins by ELISA assay
HT-29 = experiment: Antiproliferative activity against human HT-29 cells assessed as cell growth inhibition by propidium iodide staining based fluorescence assay; type: functional
MIA PaCa-2 = experiment: Antiproliferative activity against human MIA PaCa-2 cells assessed as cell growth inhibition by propidium iodide staining based fluorescence assay; type: functional
[14] = molecular target: Tyrosine-protein kinase BTK (Homo sapiens, UniProt Q06187); experiment: Inhibition of BTK (unknown origin) incubated for 30 mins in presence of ATP by fluorescence based analysis
TMD8 = experiment: Cytotoxicity against human TMD8 cells assessed as cell growth inhibition measured after 72 hrs by WST-1 assay; type: functional, cell-based; details: TMD8, 72 h
MCF7 [15] = experiment: Antiproliferative activity against human MCF7 cells assessed as cell growth inhibition; type: functional, cell-based
A549 [16] = experiment: Antiproliferative activity against human A549 cells assessed as cell growth inhibition; type: functional, cell-based
[17] = molecular target: T2, Poly [ADP-ribose] polymerase 1; experiment: Inhibition of PARP1 (unknown origin) by colorimetric assay
[18] = molecular target: Protein deacetylase HDAC6 (Homo sapiens, UniProt Q9UBN7); experiment: Inhibition of HDAC6 (unknown origin) measured after 15 mins by fluorescence based assay
[19] = molecular target: T1, Hepatocyte growth factor receptor; experiment: Inhibition of human recombinant c-MET in presence of ATP by HTRF assay
Hs746T = experiment: Antiproliferative activity against human Hs746T cells assessed as cell growth inhibition measured after 72 hrs by WST-1 assay; type: functional, cell-based
[20] = Cytotoxicity against human CEM cells assessed as cell growth inhibition measured after 48 to 72 hrs by hoechst and PI staining based analysis; type: toxicity; details: CCRF-CEM cells, time 48-72 hrs
MDA-MB-231 [21] = experiment: Cytotoxicity against human MDA-MB-231 cells assessed as cell growth inhibition measured after 48 to 72 hrs by hoechst and PI staining based analysis; type: functional; details: time 48-72 hrs
[22] = molecular target: Epidermal growth factor receptor (Homo sapiens, UniProt P00533); experiment: Inhibition of EGFR (unknown origin)
A549 [23] = experiment: Cytotoxicity against human A549 cells assessed as cell growth inhibition measured after 72 hrs by MTT assay; type: functional, cell-based; details: A549, 72 h
HepG2 [24] = experiment: Cytotoxicity against human HepG2 cells assessed as cell growth inhibition measured after 72 hrs by MTT assay; type: functional, cell-based; details: HepG2, 72 h
MCF7 [25] = experiment: Cytotoxicity against human MCF7 cells assessed as cell growth inhibition measured after 72 hrs by MTT assay; type: functional, cell-based; details: MCF7, 72 h
HUVEC = experiment: Antiproliferative activity against VEGF-stimulated human HUVEC cells assessed as cell growth inhibition at 10 uM incubated for 72 hrs by resazurin dye based AlamarBlue assay relative to control; type: functional
MDA-MB-231 [26] = experiment: Antiproliferative activity against human MDA-MB-231 cells assessed as cell growth inhibition; type: functional, cell-based
HaCaT = experiment: Antiproliferative activity against human HaCaT cells assessed as cell growth inhibition; type: functional, cell-based
SH-SY5Y = experiment: Anticancer activity against human SH-SY5Y cells assessed as cell growth inhibition measured upto 72 hrs by MTS assay; type: functional, cell-based
Hep 3B2 = experiment: Anticancer activity against human Hep3B cells assessed as cell growth inhibition measured upto 72 hrs by MTS assay; type: functional, cell-based

T1 sequence (P08581 whole entry): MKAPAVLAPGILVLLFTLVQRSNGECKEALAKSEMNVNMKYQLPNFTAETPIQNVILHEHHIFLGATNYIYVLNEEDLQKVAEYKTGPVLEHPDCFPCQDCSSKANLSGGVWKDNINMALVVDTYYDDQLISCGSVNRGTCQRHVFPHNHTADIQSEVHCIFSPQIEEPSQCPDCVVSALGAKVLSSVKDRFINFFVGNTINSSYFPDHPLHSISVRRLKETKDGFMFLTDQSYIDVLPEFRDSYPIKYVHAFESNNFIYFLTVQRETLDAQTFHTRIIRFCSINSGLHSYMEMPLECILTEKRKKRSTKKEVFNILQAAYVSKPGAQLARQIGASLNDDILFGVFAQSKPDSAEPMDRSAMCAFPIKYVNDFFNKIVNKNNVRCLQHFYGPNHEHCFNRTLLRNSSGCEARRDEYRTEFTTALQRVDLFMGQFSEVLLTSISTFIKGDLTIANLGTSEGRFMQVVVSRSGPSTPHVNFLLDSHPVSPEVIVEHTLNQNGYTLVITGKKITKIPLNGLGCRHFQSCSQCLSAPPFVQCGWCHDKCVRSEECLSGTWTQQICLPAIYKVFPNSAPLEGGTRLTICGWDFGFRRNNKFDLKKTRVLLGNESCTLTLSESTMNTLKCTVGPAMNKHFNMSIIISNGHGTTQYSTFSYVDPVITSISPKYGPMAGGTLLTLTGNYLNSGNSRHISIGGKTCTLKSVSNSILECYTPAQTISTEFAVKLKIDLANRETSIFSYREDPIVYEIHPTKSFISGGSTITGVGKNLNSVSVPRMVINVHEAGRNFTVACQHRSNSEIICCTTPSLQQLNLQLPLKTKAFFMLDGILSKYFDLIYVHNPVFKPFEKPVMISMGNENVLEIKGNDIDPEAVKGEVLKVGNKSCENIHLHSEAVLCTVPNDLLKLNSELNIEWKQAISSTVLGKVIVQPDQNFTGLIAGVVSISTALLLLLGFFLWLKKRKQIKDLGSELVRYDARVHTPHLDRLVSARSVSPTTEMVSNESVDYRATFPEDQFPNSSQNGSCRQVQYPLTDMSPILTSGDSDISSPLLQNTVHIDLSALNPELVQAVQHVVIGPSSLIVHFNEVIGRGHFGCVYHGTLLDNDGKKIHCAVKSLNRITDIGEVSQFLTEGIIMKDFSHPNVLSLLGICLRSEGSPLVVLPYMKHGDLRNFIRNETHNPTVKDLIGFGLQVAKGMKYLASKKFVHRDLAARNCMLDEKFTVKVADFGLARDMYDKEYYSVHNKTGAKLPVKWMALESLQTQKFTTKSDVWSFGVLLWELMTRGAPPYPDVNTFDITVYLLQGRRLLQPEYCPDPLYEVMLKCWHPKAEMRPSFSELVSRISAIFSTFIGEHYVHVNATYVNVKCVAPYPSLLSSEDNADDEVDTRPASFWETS
T2 sequence (P09874 whole entry): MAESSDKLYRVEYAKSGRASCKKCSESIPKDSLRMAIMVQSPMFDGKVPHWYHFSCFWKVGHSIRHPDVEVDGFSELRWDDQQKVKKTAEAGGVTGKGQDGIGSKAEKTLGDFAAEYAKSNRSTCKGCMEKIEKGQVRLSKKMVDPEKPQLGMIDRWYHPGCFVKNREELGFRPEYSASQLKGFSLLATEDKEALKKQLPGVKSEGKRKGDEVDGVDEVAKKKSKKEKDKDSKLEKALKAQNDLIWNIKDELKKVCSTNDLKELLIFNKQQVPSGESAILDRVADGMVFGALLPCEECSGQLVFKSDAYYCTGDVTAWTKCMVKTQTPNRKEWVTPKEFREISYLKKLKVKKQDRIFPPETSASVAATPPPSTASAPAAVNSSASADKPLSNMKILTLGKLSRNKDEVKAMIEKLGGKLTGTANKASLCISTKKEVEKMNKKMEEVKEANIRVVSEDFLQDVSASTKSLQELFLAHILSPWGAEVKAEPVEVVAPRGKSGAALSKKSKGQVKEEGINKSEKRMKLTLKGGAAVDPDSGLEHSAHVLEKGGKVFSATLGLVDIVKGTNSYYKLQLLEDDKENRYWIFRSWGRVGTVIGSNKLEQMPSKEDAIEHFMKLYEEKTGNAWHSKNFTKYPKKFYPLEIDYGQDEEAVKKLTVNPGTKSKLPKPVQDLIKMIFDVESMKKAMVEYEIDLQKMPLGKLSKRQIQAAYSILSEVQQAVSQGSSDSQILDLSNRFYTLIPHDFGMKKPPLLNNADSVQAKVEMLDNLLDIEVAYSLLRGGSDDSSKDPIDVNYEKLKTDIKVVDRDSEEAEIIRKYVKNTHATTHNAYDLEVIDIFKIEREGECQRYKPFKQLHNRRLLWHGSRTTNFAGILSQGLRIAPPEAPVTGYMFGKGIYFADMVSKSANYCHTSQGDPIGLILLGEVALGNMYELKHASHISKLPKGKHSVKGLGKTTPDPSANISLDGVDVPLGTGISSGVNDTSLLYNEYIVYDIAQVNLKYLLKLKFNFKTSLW
Epidermal growth factor receptor, sequence (P00533 whole entry): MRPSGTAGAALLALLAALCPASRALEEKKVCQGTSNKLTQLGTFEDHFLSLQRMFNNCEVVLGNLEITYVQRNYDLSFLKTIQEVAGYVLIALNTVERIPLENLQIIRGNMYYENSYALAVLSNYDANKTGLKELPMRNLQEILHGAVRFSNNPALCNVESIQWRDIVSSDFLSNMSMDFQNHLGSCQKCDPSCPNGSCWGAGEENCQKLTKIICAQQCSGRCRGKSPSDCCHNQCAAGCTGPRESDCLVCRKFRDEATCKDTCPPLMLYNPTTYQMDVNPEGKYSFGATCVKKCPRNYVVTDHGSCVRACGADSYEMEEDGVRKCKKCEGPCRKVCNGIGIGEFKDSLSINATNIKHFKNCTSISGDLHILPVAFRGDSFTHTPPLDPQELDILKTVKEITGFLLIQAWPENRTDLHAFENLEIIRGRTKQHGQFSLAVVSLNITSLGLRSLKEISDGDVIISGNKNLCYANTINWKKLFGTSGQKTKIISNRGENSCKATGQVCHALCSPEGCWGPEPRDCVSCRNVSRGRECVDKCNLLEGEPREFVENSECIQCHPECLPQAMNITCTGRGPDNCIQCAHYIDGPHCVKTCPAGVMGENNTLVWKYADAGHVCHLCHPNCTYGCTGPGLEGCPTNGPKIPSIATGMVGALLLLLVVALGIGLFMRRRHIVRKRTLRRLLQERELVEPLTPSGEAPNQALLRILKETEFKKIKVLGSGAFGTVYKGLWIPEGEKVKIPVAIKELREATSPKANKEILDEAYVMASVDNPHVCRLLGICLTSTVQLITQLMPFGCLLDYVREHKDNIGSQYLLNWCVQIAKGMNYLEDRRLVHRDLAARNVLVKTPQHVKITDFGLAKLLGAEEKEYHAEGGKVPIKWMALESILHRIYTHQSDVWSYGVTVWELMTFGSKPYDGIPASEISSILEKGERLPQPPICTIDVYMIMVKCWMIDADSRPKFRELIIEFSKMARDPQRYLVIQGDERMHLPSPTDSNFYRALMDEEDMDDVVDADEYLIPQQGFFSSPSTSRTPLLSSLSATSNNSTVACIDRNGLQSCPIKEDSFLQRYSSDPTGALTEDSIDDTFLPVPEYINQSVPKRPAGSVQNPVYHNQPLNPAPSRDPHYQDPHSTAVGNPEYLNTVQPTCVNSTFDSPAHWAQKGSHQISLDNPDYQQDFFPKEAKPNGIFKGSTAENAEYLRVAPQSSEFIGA
Protein deacetylase HDAC6, sequence (Q9UBN7 whole entry): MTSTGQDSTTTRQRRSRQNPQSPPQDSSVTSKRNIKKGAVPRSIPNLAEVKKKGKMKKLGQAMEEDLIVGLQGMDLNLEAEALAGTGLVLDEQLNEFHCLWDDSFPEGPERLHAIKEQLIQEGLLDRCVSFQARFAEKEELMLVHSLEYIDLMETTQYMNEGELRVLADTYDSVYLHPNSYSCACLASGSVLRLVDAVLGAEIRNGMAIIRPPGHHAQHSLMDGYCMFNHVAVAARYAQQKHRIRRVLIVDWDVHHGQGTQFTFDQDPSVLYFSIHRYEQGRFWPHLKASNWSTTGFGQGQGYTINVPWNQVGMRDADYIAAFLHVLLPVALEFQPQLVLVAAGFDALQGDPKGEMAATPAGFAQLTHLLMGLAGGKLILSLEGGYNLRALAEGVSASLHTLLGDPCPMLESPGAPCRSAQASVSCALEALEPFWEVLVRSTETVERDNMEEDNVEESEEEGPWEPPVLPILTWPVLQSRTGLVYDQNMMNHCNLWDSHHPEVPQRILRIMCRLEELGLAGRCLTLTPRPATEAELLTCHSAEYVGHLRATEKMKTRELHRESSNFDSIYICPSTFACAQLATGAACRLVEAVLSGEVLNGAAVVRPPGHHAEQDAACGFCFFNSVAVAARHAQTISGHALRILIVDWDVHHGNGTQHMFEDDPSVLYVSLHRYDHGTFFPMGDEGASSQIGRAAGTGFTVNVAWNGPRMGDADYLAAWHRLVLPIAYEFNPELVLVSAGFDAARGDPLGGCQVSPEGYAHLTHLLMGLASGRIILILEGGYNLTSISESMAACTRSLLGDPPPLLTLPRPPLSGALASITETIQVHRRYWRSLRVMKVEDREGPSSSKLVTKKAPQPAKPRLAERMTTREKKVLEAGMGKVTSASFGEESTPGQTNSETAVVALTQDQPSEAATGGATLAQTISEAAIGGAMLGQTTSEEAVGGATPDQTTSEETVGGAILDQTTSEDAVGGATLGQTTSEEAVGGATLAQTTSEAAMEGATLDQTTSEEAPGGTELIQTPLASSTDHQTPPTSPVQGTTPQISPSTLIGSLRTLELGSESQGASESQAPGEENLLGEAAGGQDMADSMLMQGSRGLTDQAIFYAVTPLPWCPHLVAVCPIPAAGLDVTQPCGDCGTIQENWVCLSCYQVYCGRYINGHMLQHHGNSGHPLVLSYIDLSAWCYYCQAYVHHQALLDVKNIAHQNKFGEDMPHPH

Cc1n[nH]c(=O)c2c1c1cc(F)ccc1n2Cc1cn(C2CCCCC2)nn1
IC50 (IMR-32): 40 nM

O=C(/C=C/c1cccc([N+](=O)[O-])c1)N1CCN(C(=O)c2cc(Cc3n[nH]c(=O)c4ccccc34)ccc2F)CC1
IC50 (MDA-MB-436): 11600 nM

N=C(N)NS(=O)(=O)c1ccc(Nc2ccc3nc4ccccc4c(=O)n3n2)cc1
IC50 (HCT-116): 11900 nM

CC1(C)CC(=O)C2=C(C1)n1c(=O)c3ccccc3c(=O)n1C2
GI50 (PC-3 [1]): 5300 nM | GI50 (K562): 9400 nM

O=C(NC(Cc1c[nH]c2ccccc12)C1C(=O)N=C2C=CC=NN21)c1ccccc1 (centres undefined)
IC50 (A-375): 14 nM | IC50 (COLO 205): 21 nM

O=C(O)c1ccccc1Nc1ccc2nnc(-c3ccncc3)n2n1
IC50 [2]: 107000 nM

CCOC(=O)c1cc(C(=O)c2cc(OC)c(OC)c(OC)c2)n2nc(C)ccc12
GI50 (SR): 48.1 nM | GI50 (HCT-15): < 100 nM | GI50 (KM12): < 100 nM | GI50 (SW-620): < 100 nM | GI50 (SF-295): < 100 nM | GI50 (MDA-MB-435): 25.6 nM | GI50 (SK-MEL-5): < 100 nM | GI50 (UACC-62): < 100 nM | GI50 (OVCAR-3): < 100 nM | GI50 (A498): < 100 nM | GI50 (PC-3 [3]): < 100 nM | GI50 (MCF7 [4]): 48.1 nM | GI50 (MDA-MB-468): < 100 nM

O=c1[nH]nc(-c2nnc(S)o2)c2ccccc12
IC50 (HepG2 [5]): 4500 nM | IC50 (MCF7 [6]): 4900 nM

Clc1ccc2nnc(-c3c[nH]c4ccccc34)n2n1
IC50 (MCF7 [7]): 3550 nM | IC50 (CCRF-SB): 1640 nM | IC50 (NALM-6): 1140 nM

CNC(=O)c1cc(Oc2ccc(NC(=O)c3nn(-c4ccc(Cl)cc4)cc(C)c3=O)cc2)ccn1
IC50 [8]: 0.12 nM | IC50 (A549 [9]): 370 nM | Ratio IC50 (A549 [10]): 3.4

O=C1Nc2ccc(Cl)cc2/C1=N/Nc1nnc(-c2ccc(Cl)cc2)c2ccccc12
IC50 (MDA-MB-231 [11]): 12000 nM | Ratio IC50 (MDA-MB-231 [12]): 2.4

O=C(Nc1nc(-c2ccccc2)cs1)c1ccc(Cc2n[nH]c(=O)c3cccnc23)cc1
IC50 [13]: 45.5 nM

COc1nc2ccc(C)cc2cc1Cc1cc(-c2ccccc2)n[nH]c1=O
IC50 (HT-29): 4500 nM | IC50 (MIA PaCa-2): 2200 nM

CC(C)Nc1ccc2nnc(-c3cc(-c4cnn(C5CCN(CCO)CC5)c4)cnc3N)n2n1
IC50 [14]: 33 nM | IC50 (TMD8): 800 nM

CC(C)[Si](C#Cc1cc(-n2cc(Cn3nc(-c4ccccc4)cc(-c4ccccc4)c3=O)nn2)cc(C#C[Si](C(C)C)(C(C)C)C(C)C)n1)(C(C)C)C(C)C
IC50 (MCF7 [15]): 3.25 µg/mL | IC50 (A549 [16]): 5 µg/mL (≈ 6.52 µM)

O=C(/C=C/c1ccc(CCCCCCc2n[nH]c(=O)c3cc(F)ccc23)cc1)NO
IC50 [17]: 7 nM | IC50 [18]: 57 nM

O=c1ccc(-c2cccnc2)nn1CC1CN(c2ncc(-c3cnn(C4CCNCC4)c3)cn2)CCO1 (centres undefined)
IC50 [19]: 35 nM | IC50 (Hs746T): 1900 nM

O=c1c(Cl)c(Cl)cnn1-c1ccc(Cl)c(C(F)(F)F)c1
CC50 [20]: 330 nM | CC50 (MDA-MB-231 [21]): 2630 nM

CN(C)c1ccc(/C=N/NC(=O)Cn2nc(Cc3ccc(Cl)cc3)c3ccccc3c2=O)cc1
IC50 [22]: 0.45 nM

COc1cc2c(Oc3ccc(NC(=O)c4nn(-c5ccccc5)ccc4=O)cc3F)ccnc2cc1OCCCN1CCN(C)CC1
IC50 (A549 [23]): 3 nM | IC50 (HepG2 [24]): 490 nM | IC50 (MCF7 [25]): 6 nM

O=C(Nc1ccc(Oc2nnc(Cl)c3ccccc23)cc1)Nc1ccc(Cl)c(C(F)(F)F)c1
inhibition at 10 µM (HUVEC): 71.6%

COc1ccc(-c2nc(N3N=C(c4ccc(F)cc4)CCC3=O)n(C)c(=O)c2C#N)cc1
IC50 (MCF7 [15]): 3430 nM | IC50 (MDA-MB-231 [26]): 2560 nM | IC50 (HaCaT): > 50000 nM

Cc1cccc(/C=N/NC(=O)Cn2nc(N3CCN(c4ccc(Cl)cc4)CC3)ccc2=O)c1
IC50 (SH-SY5Y): 23200 nM | IC50 (Hep 3B2): 24300 nM
